Measured values as given in patent US7649022B2, “Bioabsorbable elastomeric polymer networks, cross-linkers and methods of use” (priority 2007, dated 2010).

Assay: Properties and self-adherence of films of PEA 4-Phe-4 mixed with EAC-2 cross-linkers, dry and after 24 h in water
Assay type: physicochemical
Set-up: key to Self-adherence: (—) means: no self-adherence observed
Details: for Self-adherence: folded film in water 24 hours; for Wet: pre-soaked in water at room temperature 24 hours; for Dry: dry film
Text: At the first stage, this Example addresses the question of whether invention cross-linking agents can be used as plasticizers without causing the composition to undesirably adhere to the surface of other materials (for example, steel, and other medical device surfaces).

SMILES	Self-adherence (PEA 4-Phe-4/EAC-2 40/60 w/w)	Self-adherence (PEA 4-Phe-4/EAC-2 60/40 w/w)	Wet (PEA 4-Phe-4/EAC-2 60/40 w/w)	Dry (PEA 4-Phe-4/EAC-2 80/20 w/w)	Self-adherence (PEA 4-Phe-4/EAC-2 80/20 w/w)	Dry (PEA 4-Phe-4/EAC-2 60/40 w/w)	Dry (PEA 4-Phe-4/EAC-2 40/60 w/w)
C=CC(=O)NC(CC(C)C)C(=O)OCCCCCCOC(=O)C(CC(C)C)NC(=O)C=C (stereo not shown) [Leu-6-AA]	—	—	Brittle	Hard	—		
CC(C)CC(NC(=O)C=Cc1ccccc1)C(=O)OCCCCCCOC(=O)C(CC(C)C)NC(=O)C=Cc1ccccc1 (stereo not shown) [Leu-6-CA]	—	—			—	Elastic	
C=C(C)C(=O)NC(CC(C)C)C(=O)OCCCCCCOC(=O)C(CC(C)C)NC(=O)C(=C)C (stereo not shown) [Leu-6-MA]	—	—			—		
O=C(C=Cc1ccccc1)NC(Cc1ccccc1)C(=O)OCCCCCCOC(=O)C(Cc1ccccc1)NC(=O)C=Cc1ccccc1 (stereo not shown) [Phe-6-CA]	—	—	Elastic	Hard	—	Brittle	Brittle
C=C(C)C(=O)N[C@@H](Cc1ccccc1)C(=O)OCCCCCCOC(=O)[C@H](Cc1ccccc1)NC(=O)C(=C)C [Phe-6-MA, dimethacrylate of bis(L-Phe)-1,6-hexanediol diester]	—	—	Elastic	Hard	—	Hard	
